The values that follow come from US20060020036A1, “Methods and compositions to promote bone homestasis” (priority 2004, published 2006).

The target in assay [1] is T1, GPR65 (Homo sapiens, UniProt Q8IYL9).
T1 construct: amplification of the complete open reading frame from ATG start codon to the stop codon of drugable genes; expressed in transfected cells; host or cells: primary human mesenchymal progenitor cells (MPCs), transduced with Ad-GPR65 and Ad-hCAR
Kind of assay: AP assay: MPCs infected with Ad-GPR65 and treated with ligand. It counts as cell-based. The conditions noted are these: ligand at different concentrations. As for the experimental part: These dose-response curves are depicted in FIG. 5. A dose-response curve for AP activity is generated for MPCs infected with Ad-NR1H3 and treated with T0901317 (FIG. 5A). MPCs are seeded on day 0 at 1000 cells per well of a 384 well plate and co-infected the next day using AdC51-hCAR (MOI 250) and different MOIs of Ad5-NR1H3 (MOI 12000, 4000, 1333, 444). On day 1, 5 concentrations (1E-10M, 1E-9M, 1E-8M, 1E-7M, 1E-6M) of the compound T0901317 (Cayman Chemical, Michigan, USA, Cat. No. 71810) with fixed vehicle concentration (the vehicle is DMSO at the concentration is 0.01%) are added to the wells. After incubation for 6 days at 37° C., 10% CO2 in a humidified incubator, up-regulation of alkaline phosphatase is read: 15 μl MUP is added to each well, the plates are incubated for 15 min at 37° C. and monitored for AP activity using a fluorescence plate reader (Fluostar, BMG).
Dose-response curves for AP activity are generated in a similar way for MPCs infected with Ad-GPR65 and treated with 1-b-D-Galactosylsphingosine (FIG. 5B); for MPCs infected with Ad-AVPR2 and treated with [deamino-Cysl, D-Arg8]-Vasopressin (DDAVP) (FIG. 5C).

The test system of assay [2] is NR5A2 mRNA. Kind of assay: Up-regulation of NR5A2 and NR1H3 mRNA levels by osteogenic triggers in MPCs. The class given is cell-based, human. Particulars: final concentration 0.1 μM, vs vehicle, several time points. As for the experimental part: 100,000 MPCs are seeded in each well of a 6 well plate in 2 ml MPC medium, containing 10% FCS. The next day, after incubation at 37° C., 10% CO2 in a humidified incubator, cells are co-infected with AdC15-hCAR (final MOI of 750) and Ad-BMP2, Ad-RUNX2, Ad-MSX2, Ad-PTHR1/PTHLH or Ad-eGFP or Ad-luciferase as negative controls (final MOIs of 1250 and 2500). Alternatively, cells are treated with dexamethasone (final concentration 0.1 μM), VitD3 (final concentration 0.1 μM) or the vehicle controls (0.1% EtOH or DMSO). Cells are incubated at 37° C., 10% CO2 in a humidified incubator for a further six days unless cells are already harvested for RNA isolation. Virus is removed and replaced by 2 ml fresh OS medium (proprietary medium containing 10% FCS). Over the next 18 days, medium is refreshed 3 times per 2 weeks. Every other time, medium is refreshed half or completely. […] The fold up-regulation of NR5A2 or NR1H3 mRNA compared to negative controls (vehicle for dexamethasone or VitD3 treatment) or Ad-luciferase for Ad-infections) is calculated (FIG. 16).

Assay [3] concerns calvarial skull bones (hemicalvaria). Put plainly: Calvarial skull assay (bone organ culture). It counts as cell-based, CD1 mice. As for the experimental part:
CD1 pups are harvested around birth from CD1 female mice (received from Janvier (Le Genest St Isle, France) when they were 11 days pregnant). Pups are decapitated and the calvarial skull is dissected and split into 2 hemicalvaria. Hemicalvaria are blotted using sterile gauze, weighed and cultured in 24 well plates (MEMalpha or BGJb-Fitton-Jackson medium containing 50 μg/ml L-ascorbic acid (Sigma, A-4034), 5 mM β-glycerophosphate (Sigma, G-9891) and Penicillin-Streptomycin (Invitrogen Cat # 15140-122)). Small molecules (ligands, agonists, antagonists) are tested in at least three-fold at a minimum of 3 concentrations. Each small molecule is added to the medium on day 0 and added again when refreshing the medium (every 2-3 days). Three to 16 days after the start of the experiment, skulls are weighed again after blotting them dry using sterile gauze. The weight difference is calculated, expressed as percent weight change and the mean and standard deviations (SD) are calculated for the triplicate measurements. Data are analyzed using the Student's t-test.
The formation of new osteoid is analyzed histologically as follows: hemicalvaria are fixed in 10% buffered formalin for at least 2 days, decalcified in 10% EDTA overnight, processed through graded alcohols and embedded in paraffin wax. Three to 10 μm sections are prepared of the calvaria and stained with hematoxylin and eosin (H&E). Healthy cells, dead cells, old and new bone, and collagen are identified by their distinctive morphology and colouring observed after H&E staining. The surfaces taken by these are measured stereologically (μm^2 readout) and termed Osteoblast area, Debris area, Native and New bone area, Collagen area and Total area (sum of the previous 5 areas), respectively. In addition, the thickness (μm readout) is measured at 8 positions, evenly spaced over the section.
The histological readout of the calvarial skull assay is developed using known osteogenic agents. Hemicalvaria were treated with recombinant human parathyroid hormone (rhPTH).
T0901317 is added to the culture medium of the dissected hemicalvaria at the day of dissection at several doses (19.5, 78.1 and 313 nM), in fourfold. The concentration of the solvent (vehicle), DMSO, is fixed at a final concentration of 0.05%. The medium, containing T0901317 or vehicle control is refreshed every 2-3 days. Hemicalvaria are harvested 7 days after the initiation of the experiment and subjected to the histological analysis described above.

Entries after “also recorded” stand apart in the source; their conditions may differ.

T1 sequence (Q8IYL9 whole entry): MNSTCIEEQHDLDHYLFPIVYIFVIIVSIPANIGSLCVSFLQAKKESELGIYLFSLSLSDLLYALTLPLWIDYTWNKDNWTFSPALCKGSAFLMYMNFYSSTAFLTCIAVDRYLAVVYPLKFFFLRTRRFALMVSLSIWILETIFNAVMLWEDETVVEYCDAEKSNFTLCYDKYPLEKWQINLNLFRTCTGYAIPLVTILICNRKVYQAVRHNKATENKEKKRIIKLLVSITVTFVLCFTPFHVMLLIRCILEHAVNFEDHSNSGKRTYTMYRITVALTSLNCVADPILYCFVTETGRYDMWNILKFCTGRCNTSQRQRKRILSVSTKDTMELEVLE

As for `CCCCCCCCCCCCCC=CC(O)C(N)CO[C@@H]1O[C@H](CO)[C@H](O)[C@H](O)[C@H]1O` (stereo partly drawn) [1-b-D-Galactosylsphingosine], the “up-regulation of endogenous alkaline phosphatase (AP) activity, dose-response” value in assay [1] is reported as “dose-dependently increase the up-regulation of the endogenous alkaline phosphatase activity; also recorded: dose-dependent up-regulation of AP activity”.
As to `C=C1CC[C@H](O)C/C1=C/C=C1\CCC[C@]2(C)[C@@H]([C@H](C)CCCC(C)C)CC[C@@H]12` [VitD3], the “NR5A2 mRNA levels” value in assay [2] is “up-regulated”.

B1: PTH: recombinant human parathyroid hormone, known osteogenic agent (protein, UniProt P01270 32-115, looked up)
Parathyroid hormone: SVSEIQLMHNLGKHLNSMERVEWLRKKLQDVHNFVALGAPLAPRDAGSQRPRKKEDNVLVESHEKSLGEADKADVNVLTKAKSQ
modifications: Parathyroid hormone
notes: recombinant human parathyroid hormone, known osteogenic agent
Consider B1, for which the “effect on bone tissue” value in assay [3] (10^−7 M) was “resorptive effect on bone tissue”; in assay [3] (10^−11 M), “induces bone build-up”.
